SMILES	melting point [°C]
Cc1ccc(C(=O)NC(NC(=S)Nc2cccc(F)c2)C(F)(F)F)cc1 (stereo not drawn)	205 to 206
CC(=Cc1ccc(C(C)(C)C)cc1)C(=O)NC(C)c1ccc(NS(C)(=O)=O)c(F)c1 (stereo not drawn)	92 to 94
NCC1CCCN(c2c(F)cc3c(=O)c(C(=O)O)cn(C4CC4)c3c2F)C1 (stereo not drawn)	242 to 243
O=C(O)C(=O)c1ccc(OCCOC2CCc3ccccc3C2)cc1 (stereo not drawn)	119 to 120
COc1ccc2c(c1)N(CCCN1CCC(CCO)CC1)c1cccc(SC)c1S2	101 to 103
CC(=O)SCC(Cc1ccccc1)C(=O)Nc1cc(C(=O)O)ccc1CN1CCCC1 (stereo not drawn)	95 to 98
COc1cccc2c1nc(C(F)F)n2-c1nc(Nc2ccc(N(C)S(C)(=O)=O)nc2)nc(N2CCOCC2)n1	250 to 253
C=CC(=O)NC(=O)CC(C)=O	128 to 130
Cc1nnc(-c2ccc3occ(-c4ccccc4Cl)c3c2)o1	83 to 84
COc1ccc2c(c1)Cc1c(-c3cccs3)n[nH]c1-2	212 to 214
O=C(O)C1=Cc2cc(I)cc(I)c2OC1C(F)(F)F (stereo not drawn)	243 to 244
COc1c(N2CCC(NC(=O)OC(C)(C)C)C2)c(F)cc2c(=O)c(C(=O)O)cn(C3CC3)c12 (stereo not drawn)	224 to 226
CN(C)C1CN(c2cc3c(cc2F)c(=O)c(C(=O)O)cn3C2CC2)C1	255 to 261
CCOC(=O)c1c(CN(CC)CC)nc2sc3c(c2c1-c1ccc(OC)c(OC)c1)CCN(C(=O)c1ccc(Cl)cc1)C3	96 to 98
Cc1cc(=O)[nH]c2cc(OCCCN3CCC(NC(=O)c4ccccc4)CC3)ccc12	275 to 276
COC(=O)Cn1nnnc1-c1cccc(C#N)c1	67 to 69
Cn1cc(-c2ccncn2)cc(Br)c1=O	208 to 210
CN(c1cc(OCCCS(C)(=O)=O)cc2cc(C3=NCC(CN4CCS(=O)CC4)S3)[nH]c12)S(=O)(=O)c1ccccn1 (stereo not drawn)	107 to 110
COc1ccc2cc(-c3cnc(Cc4ccc5ccccc5c4)o3)ccc2c1	159 to 162
CCOC1=NC(N)=C(C(=O)OC)C(c2cccc(Cl)c2)C1C(=O)OC (stereo not drawn)	158
CC(=O)N1c2ccccc2CC1C(N)=S (stereo not drawn)	194 to 195
COc1ccc(CN(CCN(C)CCCNC(=O)NCCCOc2cccc(CN3CCCCC3)c2)c2ccccn2)cc1	120
CC(=O)OCC(C)(C)CS(N)(=O)=O	106 to 109
Cc1nc(-c2c(Cl)cc(C(F)(F)F)cc2Cl)[nH]c1S(N)(=O)=O	266 to 267
CNC(=O)N1CCc2[nH]cnc2C1c1ccco1 (stereo not drawn)	205

SMILES	melting point [°C]
CC(C)(COCC(C)(C)c1ccc(O)cc1)c1ccc(O)cc1	69.2 to 70
Cc1c(Br)ccc(N)c1S(C)(=O)=O	103 to 106
CC(C)n1cnc2c(NCc3ccc(O)cc3O)nc(NC[C@@H](C)O)nc21	189 to 191
COC(=O)CCc1cc(N)c(O)c(C(C)(C)C)c1	108 to 109
CN(C)n1cc(C(=O)NCc2ccc(Cl)cc2)c(=O)c2cc(C#CCO)ccc21	210 to 214
CCOP(=O)(CS(=O)(=O)Oc1ccccc1)OCC	50.5 to 51.5
CCOC(=O)c1c(COC(C)=O)cccc1S(=O)(=O)NC(C)(C)C	81 to 82
CCOC(=O)c1c(-c2ccc(F)cc2)c2nccnc2c(=O)n1C	221 to 222
Cc1ccc2oc(=O)c(C(=O)Oc3cccc4cnccc34)cc2c1	188 to 190
O=C(O)C1=Cc2c(ccc3occ(-c4ccc(Br)cc4)c23)OC1C(F)(F)F (stereo not drawn)	> 250
COc1cc(C=C(C(=O)NC2CCC(C)CC2)c2ccccc2)ccc1OC(C)=O (stereo not drawn)	136 to 140
Cc1ccc(NC(=O)OCC(C)C)cc1Nc1ncc(-c2cccnc2)o1	186
COc1ccc(N2N=C(C)C(C(=O)Nc3ccc(F)cc3)C2=O)cc1 (stereo not drawn)	125 to 128
CN(CCc1ccc(Nc2ncc3c(n2)-c2ccccc2C(c2ccc(Cl)c(Cl)c2)C3)cc1)C1CCCCC1 (stereo not drawn)	130 to 131
C=CCOc1ccc2ccc(N)nc2n1	138
C=CCOC(=O)N[C@H]1CC(=O)O[C@H]1OCc1ccccc1	108 to 110
O=C(Nc1ccc(-n2nc(C(F)(F)F)cc2C2CC2)nc1)c1c(Cl)cncc1Cl	223 to 225
CC1(C)c2cc(NS(C)(=O)=O)ccc2CC2C1CCCN2CC1CCCCC1 (stereo not drawn)	214 to 217
Cc1cc(Cl)nc(S(C)(=O)=O)n1	72
COc1cc(OC)cc(N2CCN(C(=O)Nc3cc(C(C)(C)O)c(C)nc3OC)CC2)c1	146 to 148
COc1ccc(COC(=O)C2=C(C3CCCO3)OC[C@@H]3[C@H](NC(c4ccccc4)(c4ccccc4)c4ccccc4)C(=O)N23)cc1 (stereo partly drawn)	129 to 131
COc1cc2cc(C3CCCCC3)sc2c(Cl)c1Cl	60
Nc1ccc(-c2nnsc2-c2ccc(N)cc2)cc1	236
COP(=O)(OC)C(O)c1ccccc1 (stereo not drawn)	85 to 86
NCC1(O)c2ccccc2CCc2ccccc21	147 to 149

SMILES	melting point [°C]
Clc1ccc2c(c1)CSCCCN2	54 to 55
Cn1cc(C(=O)c2ccc3ccccc3c2)cc1C(=O)CCl	148 to 151
CC(C)(Sc1ccccc1)C(=O)O	62 to 64
CC1(C)C(=NO)C(c2ccccc2)=C1c1ccc(S(C)(=O)=O)cc1	217 to 220
OC1(COc2cccc3onc(OCC4CCN(CC5(O)CCOCC5)CC4)c23)CCCC1	136
Cc1c(O)c(=O)ccn1Cc1ccccc1	205 to 207
O=C1Nc2ccc(C(F)(F)F)cc2C1c1ncnc2c1cnn2C1CCCC1 (stereo not drawn)	> 300
C[C@@H]1Nc2ccc(-c3cc(F)cc(C#N)c3)cc2[C@](C)(c2ccccc2)O1	128 to 129
CCCCNC(=O)c1cc(C(C)(C)C)c(O)c(C(C)(C)C)c1	181 to 183
COc1ccc2oc(CC(=O)O)c(C)c2c1	113 to 114
CCN1N=C(c2ccc([N+](=O)[O-])cc2)C(C)(C)C1=O	118 to 120
Cc1ccc2c(c1)Oc1ncc(N)cc1C(=O)N2C	191 to 193
COC(=O)c1ccc(CCc2csc(NC(C)=O)n2)cc1	170 to 171
O=CNC(CC(=O)O)c1ccccc1 (stereo not drawn)	135 to 136
Cc1cc(Oc2cccc(C(F)(F)F)c2)nn1C(=O)Nc1ccc(F)cc1	70 to 72
Cc1cc(C)n(CC(C)C)c(=O)c1C(=O)O	93 to 95
O=C1NC(=O)C(Nc2cccc3ccccc23)S1 (stereo not drawn)	195 to 197
COc1nc(N2C(=O)C3CCCCN3C2=O)c(F)cc1C#N (stereo not drawn)	159 to 170
CCOC(=O)C1=C(N=CN(C)C)NC(C)=C(C(=O)OC)C1c1ccccc1Cl (stereo not drawn)	137
Cc1cc(SC(C)C)c(NC(=O)CCCCCSc2nc3ccccc3o2)c(SC(C)C)n1	98 to 100
Cc1n[nH]cc1-c1cccc2c1nnn2-c1ccnc(NC2CCN(S(C)(=O)=O)CC2)n1	231 to 232
CC(C)(C)C(=O)Nc1ccc(F)cc1C1(O)CCN(C/C=C/c2ccc(Cl)cc2)CC1	172 to 173
COc1cc(N(C)C)nc(N2CCN(Cc3ccc(CNC(C)=O)cc3)CC2)n1	115 to 118

From a melting point compilation (Tetko et al.; mined from patent text by program, amines drawn as free bases though some values may be those of a salt)
